pIC50: −log10 of the molar value.
Target: T1, Human TRPV3 (Homo sapiens, UniProt Q8NET8)
T1 construct: expressed in transfected cells; host or cells: CHO cells (G-418 selected)
T1 sequence (Q8NET8 1-790): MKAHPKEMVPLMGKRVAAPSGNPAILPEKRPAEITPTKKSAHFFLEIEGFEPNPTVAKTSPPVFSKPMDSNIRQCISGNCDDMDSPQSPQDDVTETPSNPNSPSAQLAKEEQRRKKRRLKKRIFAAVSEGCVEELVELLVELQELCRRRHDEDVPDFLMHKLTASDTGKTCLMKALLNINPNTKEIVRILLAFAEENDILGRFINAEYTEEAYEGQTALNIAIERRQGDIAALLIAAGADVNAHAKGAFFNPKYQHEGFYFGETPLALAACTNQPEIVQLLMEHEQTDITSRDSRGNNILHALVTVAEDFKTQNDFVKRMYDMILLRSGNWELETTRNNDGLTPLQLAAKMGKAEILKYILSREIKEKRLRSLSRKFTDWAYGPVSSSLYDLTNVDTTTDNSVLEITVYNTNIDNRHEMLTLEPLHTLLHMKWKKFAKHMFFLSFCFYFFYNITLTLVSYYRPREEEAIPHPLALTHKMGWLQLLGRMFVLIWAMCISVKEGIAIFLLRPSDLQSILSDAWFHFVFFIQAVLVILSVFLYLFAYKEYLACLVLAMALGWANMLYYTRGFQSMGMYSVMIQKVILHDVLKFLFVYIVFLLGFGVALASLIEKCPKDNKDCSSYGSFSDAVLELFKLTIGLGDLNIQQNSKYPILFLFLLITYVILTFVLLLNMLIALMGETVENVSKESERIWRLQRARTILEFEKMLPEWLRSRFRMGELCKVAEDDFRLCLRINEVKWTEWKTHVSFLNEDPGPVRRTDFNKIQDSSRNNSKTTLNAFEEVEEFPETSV
Assay: 45Calcium uptake assay: inhibition of 2-APB induced cellular uptake of radioactive calcium
Assay type: cell-based
Conditions: human TRPV3 expressing CHO cells, 2-APB 500 μM; for inhibition at 1 µM: 1.0 μM compound, read-out: Percentage inhibition at 1.0 μM; for inhibition at 10 µM: 10.0 μM compound, read-out: Percentage inhibition at 10.0 μM
Method in brief: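 CHO cells stably expressing human TRPV3 (~50,000/well) were preincubated with compounds for 10 min in medium containing 0.1% BSA, 1.8 mM CaCl2 and 0.5% DMSO. Then 500 μM 2-APB and 5 μCi/ml 45Ca2+ were added for 4 min. Lysate radioactivity was expressed as % of maximal uninhibited response, and IC50 came from nonlinear regression, alongside % inhibition at 1.0 and 10.0 μM.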

Row | SMILES | inhibition at 1 µM | inhibition at 10 µM | pIC50
1 | O=C(CCc1c[nH]c2ccccc12)NC1CC2(CCC2)Oc2ccc(Cl)cc21 (stereo not drawn) [Example 77, N-(6-Chloro-3,4-dihydrospiro[chromene-2,1′-cyclobutan]-4-yl)-3-(1H-indol-3-yl)-propanamide] | 39.4% | 81.8% | 
2 | COc1ccc(CCC(=O)NC2CC3(CCC3)Oc3ccc(Cl)cc32)c2cc(C)oc12 (stereo not drawn) [Example 78, N-(6-chloro-3,4-dihydrospiro[chromene-2,1′-cyclobutan]-4-yl)-3-(2-methyl, 7-methoxy-1-benzofuran-4-yl)propanamide] | 46.1% | 91.3% | 6.00 to 6.30
3 | COc1cc(CCC(=O)N[C@@H]2CC3(CCC3)Oc3ccc(Cl)cc32)cc2cc(C)oc12 [Example 79, N-[(4R)-6-Chloro-3,4-dihydrospiro[chromene-2,1′-cyclobutan]-4-yl]-3-(7-methoxy-2-methyl-1-benzofuran-5-yl)propanamide] | 51.5% | 95.5% | 
4 | COc1cc(CCC(=O)N[C@H]2CC3(CCC3)Oc3ccc(Cl)cc32)cc2cc(C)oc12 [Example 80, N-[(4S)-6-chloro-3,4-dihydrospiro[chromene-2,1′-cyclobutan]-4-yl]-3-(7-methoxy-2-methyl-1-benzofuran-5-yl)propanamide] | 73.5% | 98.6% | 6.00 to 6.30
5 | O=C(CCc1ccc2c(c1)OCCO2)NC1CC2(CCC2)Oc2ccc(F)cc21 (stereo not drawn) [Example 81] | 29.1% | 54.8% | 
6 | O=C(CCc1cccc2c1OCO2)NC1CC2(CCC2)Oc2ccc(Cl)cc21 (stereo not drawn) [Example 82, 3-(1,3-Benzodioxol-4-yl)-N-[6-chloro-3,4-dihydrospiro[chromene-2,1′-cyclobutan]-4-yl]propanamide] | 24.3% | 90.9% | 
7 | O=C(CCc1cccc2c1OCO2)NC1CC2(CCC2)Oc2c(Cl)cccc21 (stereo not drawn) [Example 83, 3-(1,3-Benzodioxol-4-yl)-N-(8-chloro-3,4-dihydrospiro[chromene-2,1′-cyclobutan]-4-yl)propanamide] | 11% | 83.2% | 
8 | O=C(CCc1cccc2c1OCCO2)NC1CC2(CCC2)Oc2ccc(Cl)cc21 (stereo not drawn) [Example 84] | 11% | 83.2% | 
9 | O=C(CCc1cccc2c1oc1ccccc12)NC1CC2(CCC2)Oc2ccc(Cl)cc21 (stereo not drawn) [Example 85, N-(6-Chloro-3,4-dihydrospiro[chromene-2,1′-cyclobutan]-4-yl)-3-(dibenzo[b,d]furan-4-yl)propanamide] | 76.9% | 90.4% | > 6.30
10 | COc1cccc(CCC(=O)NC2CC3(CCCC3)Oc3ccc(Cl)cc32)c1OC1CCCC1 (stereo not drawn) [Example 86, N-(6-Chloro-3,4-dihydrospiro[chromene-2,1′-cyclopentan]-4-yl)-3-(2-cyclopentyloxy-3-methoxy)propanamide] | 11.6% | 66% | 
11 | COc1cccc(CCC(=O)NC2CC3(CCCCC3)Oc3ccc(Cl)cc32)c1OC1CCCC1 (stereo not drawn) [Example 87, N-(6-Chloro-3,4-dihydrospiro[chromene-2,1′-cyclohexan]-4-yl)-3-(2-cyclopentyloxy-3-methoxy)phenylpropanamide] | 26.7% | 67.3% | 
12 | COc1cccc(CCC(=O)NC2CC(C)(C)Oc3ccccc32)c1OC1CCCC1 (stereo not drawn) [Example 88, N-(2,2-Dimethyl-3,4-dihydro-2H-chromen-4-yl)-3-(2-cyclopentyloxy-3-methoxy)phenylpropanamide] | 17.1% | 93.2% | 
13 | COc1cccc(CCC(=O)NC2CCSc3ccc(Cl)cc32)c1OC1CCCC1 (stereo not drawn) [Example 89, N-(6-chloro-3,4-dihydro-2H-thiochromen-4-yl)-3-(2-cyclopentyloxy-3-methoxyphenyl)-propanamide] | 38% | 87.3% | 
14 | COc1ccc2ccccc2c1CCC(=O)NC1CCSc2ccc(Cl)cc21 (stereo not drawn) [Example 90, N-(6-chloro-3,4-dihydro-2H-thiochromen-4-yl)-3-(2-methoxy-1-naphthyl)propanamide] | 49.2% | 91.4% | 
15 | O=C(CCCc1ccccc1OC1CCCC1)NC1CC2(CCC2)Oc2ccc(Cl)cc21 (stereo not drawn) [Example 91, N-(6-Chloro-3,4-dihydrospiro[chromene-2,1′-cyclobutan]-4-yl)-4-(2-cyclopentyloxy-phenyl)butanamide] | 51% | 82.5% | 
16 | COc1cccc(CCCC(=O)NC2CC3(CCC3)Oc3ccc(Cl)cc32)c1OC1CCCC1 (stereo not drawn) [Example 92, N-(6-Chloro-3,4-dihydrospiro[chromene-2,1′-cyclobutan]-4-yl)-4-[2-(cyclopentyloxy)-3-methoxyphenyl]butanamide] | 86.1% | 95.8% | > 6.30
17 | COc1cccc(CCCC(=O)N[C@@H]2CC3(CCC3)Oc3ccc(Cl)cc32)c1OC1CCCC1 [Example 93, N-(4R)-6-Chloro-3,4-dihydrospiro[chromene-2,1′-cyclobutan]-4-yl-4-(2-cyclopentyloxy-3-methoxyphenyl)butanamide] | 72.8% | 94.2% | 6.00 to 6.30

More lines, now with the values ahead:

Row | inhibition at 1 µM | inhibition at 10 µM | pIC50 | SMILES
18 | 79.7% | 97.2% | > 6.30 | COc1cccc(CCCC(=O)N[C@H]2CC3(CCC3)Oc3ccc(Cl)cc32)c1OC1CCCC1 [Example 94]
19 | 71.8% | 96.5% | 6.00 to 6.30 | COc1cccc(CCCC(=O)N[C@@H]2CC3(CCC3)Oc3c(Cl)cccc32)c1OC1CCCC1 [Example 95, (4R)—N-(8-Chloro-3,4-dihydrospiro[chromene-2,1′-cyclobutan]-4-yl)-4-(2-cyclopentyloxy-3-methoxyphenyl)butanamide]
20 | 44.4% | 80.9% |  | COc1cccc(CCCC(=O)N[C@H]2CC3(CCC3)Oc3c(Cl)cccc32)c1OC1CCCC1 [Example 96, (4S)—N-(8-Chloro-3,4-dihydrospiro[chromene-2,1′-cyclobutan]-4-yl)-4-(2-cyclopentyloxy-3-methoxyphenyl)butanamide]
21 | 60% | 90.3% | 5.70 to 6.00 | COc1cccc(CCCC(=O)NC2CC3(CCC3)Oc3c(Cl)cc(F)cc32)c1OC1CCCC1 (stereo not drawn) [Example 97, N-(8-Chloro-6-fluoro-3,4-dihydrospiro[chromene-2,1′-cyclobutan]-4-yl)-4-(2-cyclopentyloxy-3-methoxyphenyl)butanamide]
22 | 36.9% | 69.5% |  | COc1cccc(CCCC(=O)NC2CC3(CCC3)Oc3c(Cl)cc(Cl)cc32)c1OC1CCCC1 (stereo not drawn) [Example 98, N-(6,8-Dichloro-3,4-dihydrospiro[chromene-2,1′-cyclobutan]-4-yl)-4-(2-cyclopentyloxy-3-methoxyphenyl)butanamide]
23 | 19.9% | 19.6% |  | COc1cccc(CCCC(=O)NC2CC3(CCC3)Oc3cc(OCc4ccccc4)ccc32)c1OC1CCCC1 (stereo not drawn) [Example 99, N-(7-Benzyloxy-3,4-dihydrospiro[chromene-2,1′-cyclobutan]-4-yl)-4-(2-cyclopentyloxy-3-methoxyphenyl)butanamide]
24 | 19.4% | 87% |  | COc1cccc(CCCC(=O)NC2CC3(CCC3)Oc3cc(O)ccc32)c1OC1CCCC1 (stereo not drawn) [Example 100, N-(7-Hydroxy-3,4-dihydrospiro[chromene-2,1′-cyclobutan]-4-yl)-4-(2-cyclopentyloxy-3-methoxyphenyl)butanamide]
25 | 26.5% | 63.2% |  | COc1ccc(C(=O)CCC(=O)NC2CC3(CCC3)Oc3ccc(Cl)cc32)c2ccccc12 (stereo not drawn) [Example 101, N-(6-Chloro-3,4-dihydrospiro[chromene-2,1′-cyclobutan]-4-yl)-4-oxo-4-(4-methoxy-naphthyl)butanamide]
26 | 26.6% | 42.8% |  | COc1ccc(C(O)CCC(=O)NC2CC3(CCC3)Oc3ccc(Cl)cc32)c2ccccc12 (stereo not drawn) [Example 102, N-(6-Chloro-3,4-dihydrospiro[chromene-2,1′-cyclobutan]-4-yl)-4-hydroxy-4-(4-methoxynaphthyl)butanamide]
27 | 69.4% | 96.4% | 6.00 to 6.30 | COc1cccc(CCCC(=O)NC2CC(C)(C)Oc3ccc(Cl)cc32)c1OC1CCCC1 (stereo not drawn) [Example 103, N-(6-Chloro-2,2-dimethyl-3,4-dihydro-2H-chromen-4-yl)-4-(2-cyclopentyloxy-3-methoxy)phenylbutanamide]

Source: patent US8487121B2, “Chromane derivatives as TRPV3 modulators” (Glenmark Pharmaceuticals S.A., priority 2007, dated 2013)
